≈ marks a conversion by molar mass, not a printed value. Where a SMILES comes first, the peptide text is derived from it.
experiment: Solubility test (water solubility, saturated solution); type: physicochemical; details: water (saturated aqueous solution), from solid: saturated aqueous solution at 25°C, sonicated approx. 10 min, centrifuged, supernatant diluted, UV absorbance at 214 nm against Samoamide A standard curve (C = 0.4646A - 0.0201)
Procedure: Samoamide A was precisely weighed, and 1 mg was placed in a 10 ml centrifuge tube and diluted to scale with 95% ethanol. Then, 0, 200, 400, 600, 800, 1,000 μl aliquots were pipetted in a 5 ml centrifuge tube and adjusted to 1 ml with 95% ethanol, and the aqueous solutions were measured on a scale, sonicated for 5 min, and placed at room temperature. An additional 1 ml of 95% ethanol was added, and water was added to the same method as the blank. The absorbance values were measured at 214 nm to obtain the linear regression equation of the standard curve.
Sufficient amounts of Samoamide A and its glycosylated derivatives were dissolved in aqueous solutions at a constant temperature of 25°C, sonicated for approximately 10 min, centrifuged and allowed to settle to remove the insoluble matter from the solution, and the upper layer of supernatant was taken, that is, the saturated solution. After the saturated solution was properly diluted, its absorbance value was measured at 214 nm, and the concentration of the saturated solution was calculated by substituting the above equation ([Chevalier et al., 2001]).

With `CC[C@H](C)[C@@H]1NC(=O)[C@@H]2CCCN2C(=O)[C@H](Cc2ccccc2)NC(=O)[C@H](C(C)C)NC(=O)[C@H](CC(C)C)NC(=O)[C@@H]2CCCN2C(=O)[C@@H]2CCCN2C(=O)[C@H](Cc2ccccc2)NC1=O` [Samoamide A] (cyclo(LVFPIFPP)) the solubility thermodynamic was 730 µg/mL (≈ 801 µM).

experiment: head-to-tail lactamisation of linear octapeptide (N-terminal Leu or Arg onto C-terminal Val or Arg), PyBOP (3 eq)/HOBt (3 eq)/DIPEA (6 eq), 0 °C to rt, 14 h; details: the molecule shown is the open-chain precursor; 24-membered ring; DCM; 12.0 h

`CC[C@H](C)[C@H](NC(=O)[C@H](Cc1ccccc1)NC(=O)[C@@H]1CCCN1C(=O)[C@H](CCCNC(=N)N[C@@H]1O[C@H](COC(C)=O)[C@@H](OC(C)=O)[C@H](OC(C)=O)[C@H]1NC(C)=O)NC(=O)[C@@H](N)CC(C)C)C(=O)N1CCC[C@H]1C(=O)N[C@@H](Cc1ccccc1)C(=O)N[C@H](C(=O)O)C(C)C` [H-Leu-Arg(N-GlcNAc(OAc)3)-Pro-Phe-Ile-Pro-Phe-Val-OH] showed a ring closure, overall yield of 20%.

same assay, conditions: the molecule shown is the open-chain precursor; 24-membered ring; DCM; 14.0 h

In order of falling ring closure, overall yield:
1. CC[C@H](C)[C@H](NC(=O)[C@H](Cc1ccccc1)NC(=O)[C@@H]1CCCN1C(=O)[C@@H]1CCCN1C(=O)[C@@H](N)CC(C)C)C(=O)N1CCC[C@H]1C(=O)N[C@@H](Cc1ccccc1)C(=O)N[C@H](C(=O)O)C(C)C [H-Leu-Pro-Pro-Phe-Ile-Pro-Phe-Val-OH]  15%
2. CC[C@H](C)[C@H](NC(=O)[C@H](Cc1ccccc1)NC(=O)[C@@H]1CCCN1C(=O)[C@H](CCCNC(=N)NS(=O)(=O)c1c(C)c(C)c2c(c1C)CC(C)(C)O2)NC(=O)[C@@H](N)CC(C)C)C(=O)N1CCC[C@H]1C(=O)N[C@@H](Cc1ccccc1)C(=O)N[C@H](C(=O)O)C(C)C [H-Leu-Arg(Pbf)-Pro-Phe-Ile-Pro-Phe-Val-OH]  10%
3. CC[C@H](C)[C@H](NC(=O)[C@H](Cc1ccccc1)NC(=O)[C@H](CCCNC(=N)NS(=O)(=O)c1c(C)c(C)c2c(c1C)CC(C)(C)O2)NC(=O)[C@@H]1CCCN1C(=O)[C@@H](N)CC(C)C)C(=O)N1CCC[C@H]1C(=O)N[C@@H](Cc1ccccc1)C(=O)N[C@H](C(=O)O)C(C)C [H-Leu-Pro-Arg(Pbf)-Phe-Ile-Pro-Phe-Val-OH]  10%
4. CC[C@H](C)[C@H](NC(=O)[C@H](Cc1ccccc1)NC(=O)[C@@H]1CCCN1C(=O)[C@@H]1CCCN1C(=O)[C@@H](N)CCCNC(=N)NS(=O)(=O)c1c(C)c(C)c2c(c1C)CC(C)(C)O2)C(=O)N1CCC[C@H]1C(=O)N[C@@H](Cc1ccccc1)C(=O)N[C@H](C(=O)O)C(C)C [H-Arg(Pbf)-Pro-Pro-Phe-Ile-Pro-Phe-Val-OH]  9%
5. CC[C@H](C)[C@H](NC(=O)[C@H](CCCNC(=N)NS(=O)(=O)c1c(C)c(C)c2c(c1C)CC(C)(C)O2)NC(=O)[C@@H]1CCCN1C(=O)[C@@H]1CCCN1C(=O)[C@@H](N)CC(C)C)C(=O)N1CCC[C@H]1C(=O)N[C@@H](Cc1ccccc1)C(=O)N[C@H](C(=O)O)C(C)C [H-Leu-Pro-Pro-Arg(Pbf)-Ile-Pro-Phe-Val-OH]  8%
6. Cc1c(C)c(S(=O)(=O)NC(=N)NCCC[C@H](NC(=O)[C@H](Cc2ccccc2)NC(=O)[C@@H]2CCCN2C(=O)[C@@H]2CCCN2C(=O)[C@@H](N)CC(C)C)C(=O)N2CCC[C@H]2C(=O)N[C@@H](Cc2ccccc2)C(=O)N[C@H](C(=O)O)C(C)C)c(C)c2c1OC(C)(C)C2 [H-Leu-Pro-Pro-Phe-Arg(Pbf)-Pro-Phe-Val-OH]  6%
7. CC[C@H](C)[C@H](NC(=O)[C@H](Cc1ccccc1)NC(=O)[C@@H]1CCCN1C(=O)[C@@H]1CCCN1C(=O)[C@@H](N)CC(C)C)C(=O)N1CCC[C@H]1C(=O)N[C@@H](Cc1ccccc1)C(=O)N[C@@H](CCCNC(=N)NS(=O)(=O)c1c(C)c(C)c2c(c1C)CC(C)(C)O2)C(=O)O [H-Leu-Pro-Pro-Phe-Ile-Pro-Phe-Arg(Pbf)-OH]  6%
8. CC[C@H](C)[C@H](NC(=O)[C@H](Cc1ccccc1)NC(=O)[C@@H]1CCCN1C(=O)[C@@H]1CCCN1C(=O)[C@@H](N)CC(C)C)C(=O)N[C@@H](CCCNC(=N)NS(=O)(=O)c1c(C)c(C)c2c(c1C)CC(C)(C)O2)C(=O)N[C@@H](Cc1ccccc1)C(=O)N[C@H](C(=O)O)C(C)C [H-Leu-Pro-Pro-Phe-Ile-Arg(Pbf)-Phe-Val-OH]  5%
9. CC[C@H](C)[C@H](NC(=O)[C@H](Cc1ccccc1)NC(=O)[C@@H]1CCCN1C(=O)[C@@H]1CCCN1C(=O)[C@@H](N)CC(C)C)C(=O)N1CCC[C@H]1C(=O)N[C@@H](CCCNC(=N)NS(=O)(=O)c1c(C)c(C)c2c(c1C)CC(C)(C)O2)C(=O)N[C@H](C(=O)O)C(C)C [H-Leu-Pro-Pro-Phe-Ile-Pro-Arg(Pbf)-Val-OH]  4%

Source: article PMC9846560, “Silver-promoted solid-phase guanidinylation enables the first synthesis of arginine glycosylated Samoamide A cyclopeptide analogue” (Frontiers in Chemistry, 2023)
